Molecules are shown by their SMILES. Activity calls are given as the source filed them. The rule behind the calls is not given here.

In this assay the target is Peptidyl-prolyl cis-trans isomerase FKBP1A (Homo sapiens) (UniProt P62942). As to the kind of experiment: FKBP12 binders, biophysical, NMR detection (AID 608). As to conditions: NMR binding, purified FKBP12.
Chain of Peptidyl-prolyl cis-trans isomerase FKBP1A (Homo sapiens) (P62942 whole entry, looked up): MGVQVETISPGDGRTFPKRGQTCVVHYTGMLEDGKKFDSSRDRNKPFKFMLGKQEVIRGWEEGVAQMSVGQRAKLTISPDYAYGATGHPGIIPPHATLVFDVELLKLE
Take `NC(CC(=O)O)c1ccccc1` (centres undefined): the Kd is > 4 mM (inactive). Take `COc1ccc(-c2cc(=O)c3c(OC(C)=O)cc(OC(C)=O)cc3o2)cc1`: the Kd is > 4 mM (inactive). On to `NC(=O)Nc1cccc(C(F)(F)F)c1`, for which the Kd was > 4 mM (inactive). Turning to `O=c1ccc2cc(O[C@@H]3O[C@H](CO)[C@@H](O)[C@H](O)[C@H]3O)c(O)cc2o1`, the Kd was > 4 mM (inactive).

Take `C=CCn1c(=S)[nH]c2ccc(Br)cc2c1=O`: the Kd is > 4 mM (inactive). `Cc1ccccc1NS(=O)(=O)c1ccc(F)cc1`: the Kd is > 4 mM (inactive). Turning to `O=C(O)CC(O)c1nc2ccccc2[nH]1` (centres undefined), the Kd is > 4 mM (inactive). `O=C(O)C1CC(=O)N(Cc2ccc(F)cc2)C1` (centres undefined): the Kd was > 4 mM (inactive). The result for `O=c1c2ccccc2nc2n1CCCCN2` reads > 4 mM (inactive); that for `Nc1ccc(OC(F)(F)F)cc1`, > 4 mM (inactive); that for `CCCSc1nnc2[nH]c(=O)cc(N)n12`, > 4 mM (inactive). The result for `Cn1c(=O)c2cn3ncccc3c2n(C)c1=O` reads > 4 mM (inactive). Turning to `CCc1c(C(=O)Nc2ccncc2)csc1C`, the Kd was > 4 mM (inactive).

`COc1ccccc1-c1cn[nH]c(=S)n1`: the Kd is > 4 mM (inactive). For the molecule `Cc1cccc(OCc2nnc(N)s2)c1`, the Kd is > 4 mM (inactive). For `CCCCCC(=O)Cc1cc(O)cc(O)c1C(=O)Oc1cc(CC(=O)CCCCC)c(C(=O)O)c(OC)c1` the value was > 4 mM (inactive); for `COc1ccc(-c2ccc(=O)n(CC(N)=O)n2)cc1`, > 4 mM (inactive); for `CCC(=O)n1nc(-c2ccco2)nc1N`, > 4 mM (inactive). The result for `Nc1ncnc(Cl)c1[N+](=O)[O-]` reads > 4 mM (inactive); that for `COc1cc2c(c(OC)c1OC)-c1ccc(OC)c(=O)cc1[C@@H](NC(C)=O)CC2`, > 4 mM (inactive); that for `O=C(Nc1ccccc1N1CCCC1)c1cccnc1`, > 4 mM (inactive). In the case of `COc1c(O)cc2c(-c3ccccc3)cc(=O)oc2c1OC`, the Kd was > 4 mM (inactive). For the molecule `NC(=O)c1cccnc1Oc1ccccc1`, the Kd is > 4 mM (inactive).

As for `Oc1ccccc1-c1nnco1`, the Kd was > 4 mM (inactive).

On to `O=C(Nc1cccc(Cl)c1)c1ccncc1`, for which the Kd was > 4 mM (inactive). The result for `CC(=O)NC(=S)Nc1ccccc1C(N)=O` reads > 4 mM (inactive); that for `CCn1c(C)c(C(C)=O)c(N2CCOCC2)nc1=S`, > 4 mM (inactive). For the molecule `O=C(Nc1ccon1)c1ccc(Cl)s1`, the Kd is > 4 mM (inactive). Consider `NCc1cccc2nsnc12`, for which the Kd is > 4 mM (inactive). Regarding `Brc1cccc(-c2nnco2)c1`, the Kd was > 4 mM (inactive). As for `Cn1cc(Cl)c(C(=O)Nc2ccncc2)n1`, the Kd is > 4 mM (inactive). As to `NN1C(=O)CSC1=Nc1ccccc1`, the Kd is > 4 mM (inactive). In the case of `N#Cc1nc(-c2cccs2)oc1N1CCOCC1`, the Kd was > 4 mM (inactive).

Turning to `CN(C)c1ccc2c(=O)[nH][nH]c(=O)c2c1`, the Kd is > 4 mM (inactive). The result for `O=c1ccc2ccccc2o1` reads > 4 mM (inactive); that for `Cc1ccc(-n2[nH]c(C)cc2=O)cc1`, > 4 mM (inactive); that for `FC(F)(F)c1cc(-c2ccco2)nc(N2CCOCC2)n1`, > 4 mM (inactive). The result for `Nc1cccc(C(=O)c2ccccc2)c1` reads > 4 mM (inactive).

As for `CC1(C)N=C2C(=[N+]1[O-])CCC/C2=N\O`, the Kd was > 4 mM (inactive). For `CC1(C)C(=O)[C@@H]2O[C@@H]2[C@@]2(C)C1C[C@@H](O)[C@]1(C)C2CC[C@@]2(C)[C@H](c3ccoc3)OC(=O)C3OC321` (some centres undefined) the value was > 4 mM (inactive). For `NC(=O)C1CCN(CC2CC=CCC2)CC1` (centres undefined) the value was > 4 mM (inactive); for `CC(C)(C)NC(=O)N1CCC(C(=O)O)CC1`, > 4 mM (inactive); for `c1n[nH]cc1-c1cn[nH]c1`, > 4 mM (inactive). `CC1(C)Oc2ccc(N)cc2O1`: the Kd was > 4 mM (inactive). On to `S=C(NC1=NCCS1)Nc1ccccc1`, for which the Kd is > 4 mM (inactive).

As for `COc1cccc(/C=C/C(=O)O)c1C(C)C`, the Kd is > 4 mM (inactive).

On to `Cc1ccc(SC(C)c2nc(-c3ccncc3)no2)cc1` (centres undefined), for which the Kd entry was “inactive”. Regarding `c1ccc(-c2nc3ccccc3nc2-c2ccccn2)nc1`, the Kd was > 4 mM (inactive).

For `NC(=O)c1ccsc1NC(=O)C1=COCCO1`, the Kd was > 4 mM (inactive).

As for `CCOC(=O)c1c(C)cc(O)c(C)c1O`, the Kd was > 4 mM (inactive). As to `O=C1NC(=O)/C(=C\c2ccncc2)S1`, the Kd is > 4 mM (inactive).

`Nc1ccccc1C(=O)CC(N)C(=O)O` (centres undefined): the Kd is > 4 mM (inactive). The result for `O=C(O)c1cnc2n(c1=O)CCS2` reads > 4 mM (inactive). On to `CC(=O)c1cccc(NC(=O)C=C(C)C)c1`, for which the Kd is > 4 mM (inactive).

As to `C(=N\c1ncn[nH]1)/c1cccs1`, the Kd is > 4 mM (inactive).

Take `O=c1[nH]c(CN2CCN(CCO)CC2)nc2ccccc12`: the Kd was > 4 mM (inactive). Consider `Cc1oc(-c2ccccc2)cc1C(N)=O`, for which the Kd was > 4 mM (inactive). Consider `CC(=O)NC(C)C12CC3CC(CC(C(=O)O)(C3)C1)C2` (centres undefined), for which the Kd was > 4 mM (inactive). For `O=C(/C=C/c1ccc(O)cc1)c1ccc(O)cc1O` the value was > 4 mM (inactive). In the case of `CC(=O)c1ccc2c(c1)OCCO2`, the Kd is > 4 mM (inactive). As for `OC1CCN(C(=S)NC2CC2)CC1`, the Kd is > 4 mM (inactive). The result for `N#CC(O[C@@H]1O[C@H](CO[C@@H]2O[C@H](CO)[C@@H](O)[C@H](O)[C@H]2O)[C@@H](O)[C@H](O)[C@H]1O)c1ccccc1` (some centres undefined) reads > 4 mM (inactive); that for `CC(=O)Nc1ccc(N2C(=O)C=CC2=O)cc1C`, > 4 mM (inactive); that for `O=C(c1cnsn1)N1CCN(c2ccccc2)CC1`, > 4 mM (inactive).

On to `CCOC(=O)c1csc(C)n1`, for which the Kd is > 4 mM (inactive). For the molecule `COC(=O)c1c(OC)cc2c(c1C)Oc1c(Cl)c(OC(C)=O)c(Cl)c(C)c1C(=O)O2`, the Kd was > 4 mM (inactive). As to `CCN1C[C@@]2(COC)C3[C@@H](OC)[C@H]4[C@@H]1[C@]3(C(OC)C[C@H]2O)C1C[C@@]2(O)[C@H](OC(=O)c3ccccc3)C1[C@]4(OC(C)=O)[C@@H](O)[C@@H]2OC` (some centres undefined), the Kd is > 4 mM (inactive).

Turning to `CC(=O)Nc1ccc(NC(C)=O)cc1`, the Kd is > 4 mM (inactive). In the case of `Cc1cccc(C(C)C)c1NC(=O)c1cccnc1`, the Kd is > 4 mM (inactive). In the case of `COc1ccc(-c2cc(=O)c3ccccc3o2)cc1`, the Kd was > 4 mM (inactive). Consider `CCC(=O)Nc1ccccc1NC(C)=O`, for which the Kd is > 4 mM (inactive). As for `O=C1CCCCCN1CO`, the Kd was > 4 mM (inactive). For the molecule `N#C/C(=C\c1ccc[nH]1)S(=O)(=O)c1ccccc1`, the Kd is > 4 mM (inactive). On to `Nc1cc(=O)[nH]c(=S)n1-c1ccc(F)cc1`, for which the Kd was > 4 mM (inactive). Consider `CCOC(=O)C1CCNCC1`, for which the Kd is > 4 mM (inactive).

Take `NS(=O)(=O)c1ccc2c(c1)OCCO2`: the Kd was > 4 mM (inactive). `C/C=C/c1ccc2c(c1)OCO2`: the Kd was > 4 mM (inactive).

With `Nc1ccccc1-c1nc2ccccc2[nH]1`, the Kd was 0.286 mM.

For the molecule `COC(=O)Nc1nc2c(C)cccc2s1`, the Kd was > 4 mM (inactive). For `OCc1cccc2c1OCO2` the value was > 4 mM (inactive). As for `NC(=O)CSc1ccccn1`, the Kd was > 4 mM (inactive). On to `CC(=O)NC12CC3CC(C)(C1)CC(NC(C)=O)(C3)C2`, for which the Kd is > 4 mM (inactive). Turning to `CN1C(=O)c2ccc(N3CCCC3)cc2C1=O`, the Kd is > 4 mM (inactive). Turning to `COC(=O)c1cc(-c2c(C)nn(-c3ccccc3)c2C)n[nH]1`, the Kd was > 4 mM (inactive). Take `COc1cc2c(cc1-c1coc3c4c(c(OC)cc3c1=O)OC(C)(C)C=C4)OCO2`: the Kd was > 4 mM (inactive). The result for `CC1O[C@@H](Oc2c(-c3ccc(O)c(O)c3)oc3cc(O)cc(O)c3c2=O)[C@H](O)[C@H](O)[C@H]1O` (some centres undefined) reads > 4 mM (inactive); that for `O=C(CC1CCCCC1)N1CCN(c2ccccn2)CC1`, > 4 mM (inactive).

As for `c1ccc(Cc2nnc(-c3ccccc3)o2)cc1`, the Kd was > 4 mM (inactive). On to `Cn1nnc2cc(C(=O)O)ccc21`, for which the Kd was > 4 mM (inactive). For `COC(=O)c1cc(-c2c[nH]c3ccccc23)n[nH]1`, the Kd is > 4 mM (inactive). As to `COc1ccc(-c2ccc(OC)cc2C(=O)O)cc1`, the Kd is > 4 mM (inactive). Consider `O=C(CCc1n[nH]c(=O)[nH]c1=O)NCc1ccccc1`, for which the Kd is > 4 mM (inactive). For `O=C(Nc1ccc(N2CCOCC2)cc1)C1CC1`, the Kd is > 4 mM (inactive). With `C/C=C(\C)c1nnc(NC(=O)C(C)C)s1`, the Kd was > 4 mM (inactive). With `CNS(=O)(=O)c1ccc2[nH]c(=O)[nH]c2c1`, the Kd was > 4 mM (inactive). Regarding `CC(=O)N1CC2(C)CN(C(C)=O)CC(C)(C1)C2`, the Kd was > 4 mM (inactive). Turning to `COc1cc(C)c2c(c1C=O)Oc1c(c(C)c(O)c3c1C(O)OC3=O)OC2=O` (centres undefined), the Kd was > 4 mM (inactive).

For `Cc1nc(SCC#N)c2c3c(sc2n1)CCC3`, the Kd was > 4 mM (inactive). For `O=c1ccn(Cc2ccccc2)c(=O)[nH]1` the value was > 4 mM (inactive); for `O=C(Cn1c(-c2cscn2)nc2ccccc21)Nc1ccccc1F`, > 13.6 mM (inactive); for `NC(=O)c1ccc(N=Cc2ccc[nH]2)cc1`, > 4 mM (inactive). The result for `COc1cccc2c(=O)n(CC(N)=O)ccc12` reads > 4 mM (inactive). Consider `OCC(O)Cc1ccc2c(c1)OCO2` (centres undefined), for which the Kd was > 4 mM (inactive). Take `O=C1CC(=O)N(Cc2ccco2)C(=S)N1`: the Kd was > 4 mM (inactive).

Values taken from PubChem BioAssay AID608 (Sanford-Burnham Center for Chemical Genomics, 2007).
